Results as given in publication PMC4278837, “A Cyclic Peptidic Serine Protease Inhibitor: Increasing Affinity by Increasing Peptide Flexibility” (PLoS ONE, 2014).
Each block holds one compound with its values, some of them ahead of it. Bridge positions count the residues as written; N and C are the ends. Square brackets hold non-standard residues; d marks the D form. Peptide text beside a SMILES is read from it. Ala(1-amidino-4-piperidyl) = N=C(N)N1CCC(C[C@H](N)C(=O)O)CC1

What was measured:
huPA-H99Y [1] = biological target: T1, huPA-H99Y (Homo sapiens, UniProt P00749, H272Y); assay: Ki for inhibition of huPA-H99Y, chromogenic substrate S-2444; format: biochemical; conditions: 37°C; means ± S.D.; read-out: K i for inhibition of huPA-H99Y
T1 construct: To ensure that the uPAs purified from the conditioned media were completely in the two-chain form, they were treated with plasmin; hexa-His (C); made in house; host or cells: HEK293 6E suspension cells
Source text: (§1) Determination of Ki values
(§2) The initial reaction velocities were monitored at an absorbance of 405 nm. The inhibition constants (K i) were subsequently determined from the non-linear regression analyses of plots for V i/V o versus [I]0, using Equation 2, derived under assumption of competitive inhibition:
(§3) [drawing 2] (2) where V i and V 0 are the reaction velocities in the presence and absence of inhibitor, respectively; [S]0 and [I]0 are the substrate and inhibitor concentrations, respectively; K M is K M for substrate hydrolysis by each protease. In Equation 2, it is assumed that [S]free ≈ [S]0 and [I]free ≈ [I]0.

huPA-H99Y R35A = biological target: T2, huPA-H99Y R35A (Homo sapiens, UniProt P00749, H272Y/R198A); assay: Ki for inhibition of huPA-H99Y-R35A, chromogenic substrate; format: biochemical; conditions: 37°C; means ± S.D.; read-out: K i for inhibition of huPA-H99Y-R35A
T2 construct: To ensure that the uPAs purified from the conditioned media were completely in the two-chain form, they were treated with plasmin; hexa-His (C); made in house; host or cells: HEK293 6E suspension cells
Source text: as §1, §2, §3

huPA-H99Y V41A = biological target: T3, huPA-H99Y V41A (Homo sapiens, UniProt P00749, H272Y/V208A); assay: Ki for inhibition of huPA-H99Y-V41A, chromogenic substrate; format: biochemical; conditions: 37°C; means ± S.D.; read-out: K i for inhibition of huPA-H99Y-V41A
T3 construct: To ensure that the uPAs purified from the conditioned media were completely in the two-chain form, they were treated with plasmin; hexa-His (C); made in house; host or cells: HEK293 6E suspension cells
Source text: as §1, §2, §3

huPA-H99Y K143A = biological target: T4, huPA-H99Y K143A (Homo sapiens, UniProt P00749, H272Y/K320A); assay: Ki for inhibition of huPA-H99Y-K143A, chromogenic substrate; format: biochemical; conditions: 37°C; means ± S.D.; read-out: K i for inhibition of huPA-H99Y-K143A
T4 construct: To ensure that the uPAs purified from the conditioned media were completely in the two-chain form, they were treated with plasmin; hexa-His (C); made in house; host or cells: HEK293 6E suspension cells
Source text: as §1, §2, §3

muPA K41A = biological target: T5, muPA K41A (Mus musculus, UniProt P06869, K210A); assay: Ki for inhibition of muPA-K41A, chromogenic substrate; format: biochemical, murine; conditions: means ± S.D.; read-out: K i for inhibition of muPA-K41A
T5 construct: To ensure that the uPAs purified from the conditioned media were completely in the two-chain form, they were treated with plasmin; hexa-His (C); made in house; host or cells: HEK293 6E suspension cells
T5 sequence (P06869 180-433 K210A): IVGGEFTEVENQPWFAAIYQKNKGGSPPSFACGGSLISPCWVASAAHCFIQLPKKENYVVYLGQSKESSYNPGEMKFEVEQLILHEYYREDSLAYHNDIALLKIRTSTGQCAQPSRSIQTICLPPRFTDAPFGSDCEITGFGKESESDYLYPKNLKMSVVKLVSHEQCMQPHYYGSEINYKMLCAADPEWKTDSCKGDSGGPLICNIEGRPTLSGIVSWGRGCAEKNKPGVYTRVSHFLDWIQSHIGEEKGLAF
T5 sequence (P06869 21-178 partner limits assumed): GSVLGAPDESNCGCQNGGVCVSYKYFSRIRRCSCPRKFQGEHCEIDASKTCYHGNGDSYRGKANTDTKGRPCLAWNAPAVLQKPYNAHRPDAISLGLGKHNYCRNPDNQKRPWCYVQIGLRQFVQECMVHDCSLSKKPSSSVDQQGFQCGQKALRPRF
Source text: as §1, §2, §3

muPA Y99A = biological target: T6, muPA Y99A (Mus musculus, UniProt P06869, Y274A); assay: Ki for inhibition of muPA-Y99A, chromogenic substrate; format: biochemical, murine; conditions: means ± S.D.; read-out: K i for inhibition of muPA-Y99A
T6 construct: To ensure that the uPAs purified from the conditioned media were completely in the two-chain form, they were treated with plasmin; hexa-His (C); made in house; host or cells: HEK293 6E suspension cells
T6 sequence (P06869 180-433 Y274A): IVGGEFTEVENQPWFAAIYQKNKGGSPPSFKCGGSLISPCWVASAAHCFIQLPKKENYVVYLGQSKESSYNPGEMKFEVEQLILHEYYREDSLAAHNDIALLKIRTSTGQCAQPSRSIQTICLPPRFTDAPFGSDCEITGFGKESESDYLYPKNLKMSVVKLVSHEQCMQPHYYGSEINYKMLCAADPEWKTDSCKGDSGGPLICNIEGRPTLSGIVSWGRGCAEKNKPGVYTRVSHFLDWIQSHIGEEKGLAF
T6 sequence (P06869 21-178 partner limits assumed): as the sequence (P06869 21-178 partner limits assumed) above
Source text: as §1, §2, §3

muPA K143A = biological target: T7, muPA K143A (Mus musculus, UniProt P06869, K322A); assay: Ki for inhibition of muPA-K143A, chromogenic substrate; format: biochemical, murine; conditions: means ± S.D.; read-out: K i for inhibition of muPA-K143A
T7 construct: To ensure that the uPAs purified from the conditioned media were completely in the two-chain form, they were treated with plasmin; hexa-His (C); made in house; host or cells: HEK293 6E suspension cells
T7 sequence (P06869 180-433 K322A): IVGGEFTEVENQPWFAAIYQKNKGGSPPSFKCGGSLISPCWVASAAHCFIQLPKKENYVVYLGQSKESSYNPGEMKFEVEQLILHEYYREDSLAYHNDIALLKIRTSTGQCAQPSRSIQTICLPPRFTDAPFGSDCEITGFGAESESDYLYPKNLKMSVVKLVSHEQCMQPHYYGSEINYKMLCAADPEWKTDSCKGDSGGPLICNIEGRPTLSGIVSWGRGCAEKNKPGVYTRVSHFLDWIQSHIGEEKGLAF
T7 sequence (P06869 21-178 partner limits assumed): as the sequence (P06869 21-178 partner limits assumed) above
Source text: as §1, §2, §3

muPA S190A = biological target: T8, muPA S190A (Mus musculus, UniProt P06869, S373A); assay: Ki for inhibition of muPA-S190A, chromogenic substrate; format: biochemical, murine; conditions: means ± S.D.; read-out: K i for inhibition of muPA-S190A
T8 construct: To ensure that the uPAs purified from the conditioned media were completely in the two-chain form, they were treated with plasmin; hexa-His (C); made in house; host or cells: HEK293 6E suspension cells
T8 sequence (P06869 180-433 S373A): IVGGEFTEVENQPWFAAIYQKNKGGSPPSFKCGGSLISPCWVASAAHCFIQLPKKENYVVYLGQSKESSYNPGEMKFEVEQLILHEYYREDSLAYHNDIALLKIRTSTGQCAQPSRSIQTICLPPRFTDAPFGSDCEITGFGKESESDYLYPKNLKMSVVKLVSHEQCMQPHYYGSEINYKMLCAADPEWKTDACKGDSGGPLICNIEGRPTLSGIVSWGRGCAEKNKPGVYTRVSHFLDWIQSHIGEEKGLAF
T8 sequence (P06869 21-178 partner limits assumed): as the sequence (P06869 21-178 partner limits assumed) above
Source text: as §1, §2, §3

muPA V213T = biological target: T9, muPA V213T (Mus musculus, UniProt P06869, V396T); assay: Ki for inhibition of muPA-V213T, chromogenic substrate; format: biochemical, murine; conditions: means ± S.D.; read-out: K i for inhibition of muPA-V213T
T9 construct: To ensure that the uPAs purified from the conditioned media were completely in the two-chain form, they were treated with plasmin; hexa-His (C); made in house; host or cells: HEK293 6E suspension cells
T9 sequence (P06869 180-433 V396T): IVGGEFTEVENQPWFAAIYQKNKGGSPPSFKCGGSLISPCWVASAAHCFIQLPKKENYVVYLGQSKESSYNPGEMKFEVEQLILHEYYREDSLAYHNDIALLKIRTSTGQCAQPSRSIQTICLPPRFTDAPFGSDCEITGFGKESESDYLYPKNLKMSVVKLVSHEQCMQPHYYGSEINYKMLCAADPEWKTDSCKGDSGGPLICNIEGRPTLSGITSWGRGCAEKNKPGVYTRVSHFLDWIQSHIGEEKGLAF
T9 sequence (P06869 21-178 partner limits assumed): as the sequence (P06869 21-178 partner limits assumed) above
Source text: as §1, §2, §3

huPA-H99Y [2] = biological target: T1, huPA-H99Y; assay: Surface plasmon resonance analysis of peptide binding to huPA-H99Y; conditions: SPR, 25°C, pH 7.4
Description: (§4) Surface plasmon resonance (SPR) analysis
(§5) To determine the equilibrium binding constants (KD), the association rate constants (kon) and dissociation rate constants (koff) for peptide binding to uPA, surface plasmon resonance analysis was performed on a Biacore T200 instrument (Biacore, Uppsala, Sweden). A CM5 chip was coupled with the uPA variant (muPA or huPAH99Y) to be analysed, by injecting a concentration of 30 µg/mL uPA in immobilization buffer (10 mM sodium acetate, pH 5.0), aiming for an immobilised level of approximately 500 response units (RU). Immobilisation was followed by surface blocking with ethanolamine. A reference cell was prepared in the same way, without coupling of uPA. Mupain-1 variants in HBS with 0.1% BSA, in a dilution series, were injected at a flow rate of 30 µL per min during 60 s at 25°C. Subsequently, the dissociation was monitored during 600 s. Kinetic constants (k on and k off) were calculated with the Biacore Evaluation Software, using the 1∶1 kinetic fit. The K D values were calculated as k off /k on.

muPA = biological target: T10, muPA (Mus musculus, UniProt P06869); assay: Surface plasmon resonance analysis of peptide binding to muPA; set-up: species or system murine; conditions: SPR, 25°C, pH 7.4
T10 construct: To ensure that the uPAs purified from the conditioned media were completely in the two-chain form, they were treated with plasmin; hexa-His (C); made in house; host or cells: HEK293 6E suspension cells
T10 sequence (P06869 180-433 limits assumed): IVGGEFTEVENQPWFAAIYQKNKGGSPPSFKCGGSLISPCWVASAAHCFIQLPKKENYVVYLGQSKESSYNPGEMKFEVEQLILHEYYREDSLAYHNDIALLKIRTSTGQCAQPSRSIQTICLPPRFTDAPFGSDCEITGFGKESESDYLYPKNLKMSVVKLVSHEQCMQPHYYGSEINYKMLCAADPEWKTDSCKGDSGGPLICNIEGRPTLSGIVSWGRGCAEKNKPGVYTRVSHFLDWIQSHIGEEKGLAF
T10 sequence (P06869 21-178 partner limits assumed): as the sequence (P06869 21-178 partner limits assumed) above
Description: as §4, §5

huPA-H99Y [3] = biological target: T11, huPA-H99Y (Homo sapiens, UniProt P00749, C299A/H272Y/N322Q); assay: Isothermal titration calorimetry for binding to huPA-H99Y catalytic domain; conditions: ITC, 25°C, pH 7.4
T11 construct: recombinant uPA catalytic domain (residues 159–411), harbouring a H99Y mutation; made in house; host or cells: Pichia pastoris X-33 (secreted)
Description: For these experiments, we used the catalytic domain of huPA-H99Y expressed in and purified from Pichia pastoris strain X-33 (see above). The protein was dissolved in and dialysed against a buffer of 20 mM sodium phosphate, pH 7.4, 140 mM NaCl. The protein concentration was determined by absorbance at 280 nm, using an extinction coefficient of 43810 M^−1cm^−1. The peptides were dissolved in the above-mentioned buffer. All isothermal titration calorimetry experiments were performed with a MicroCal^TM ITC200 instrument equilibrated to a temperature of 25°C (298oK). The concentration of uPA-H99Y catalytic domain used in the 200 µl sample cell was 5–50 µM, depending on the affinity of the ligand. Titrations were performed by injecting 2 µl of the ligand until the total syringe volume of 40 µl was spent. Titration of ligand into buffer was performed to obtain buffer correction. The equilibrium association constant KA and the reaction enthalpy ΔH were calculated by fitting the integrated titration peaks using a one-binding-site model in the ITC ORIGIN7 programme package. The following formulas for Gibbs free energy ΔG were used to analyse the measured energies
[drawing 4] (4) where R is the gas constant and T the absolute temperature. ΔS, the entropic change during the reaction, was calculated using equations 3 and 4 and the measured K A and ΔH values.

huPA-H99Y Q192A = huPA-H99Y Q192A (Homo sapiens, UniProt P00749, H272Y/Q373A); assay: Ki for inhibition of huPA-H99Y-Q192A, chromogenic substrate; format: biochemical; set-up: To ensure that the uPAs purified from the conditioned media were completely in the two-chain form, they were treated with plasmin; hexa-His (C); made in house; host or cells: HEK293 6E suspension cells; conditions: 37°C; means ± S.D.; read-out: K i for inhibition of huPA-H99Y-Q192A
Source text: as §1, §2, §3

Ki (huPA-H99Y [1]): > 1000 µM
Compound: CC(=O)N[C@H]1CSSC[C@@H](C(N)=O)NC(=O)[C@H](CC(=O)O)NC(=O)[C@H](CC(C)C)NC(=O)[C@H](Cc2ccc(O)cc2)NC(=O)[C@H](CCCNC(=N)N)NC(=O)[C@H](CO)NC(=O)[C@H](C)NC(=O)[C@H](C)NC(=O)[C@@H]2CCCN2C1=O [Mupain-1 Y4A, CPAASRYLDC] (Ac-CPAASRYLDC-NH2; disulfide 1-10)

Ki (huPA-H99Y [1]): > 1000 µM
Compound: CC(=O)N[C@H]1CSSC[C@@H](C(N)=O)NC(=O)[C@H](CC(=O)O)NC(=O)[C@H](CC(C)C)NC(=O)[C@H](Cc2ccc(O)cc2)NC(=O)[C@H](CCCNC(=N)N)NC(=O)[C@H](C)NC(=O)[C@H](Cc2ccc(O)cc2)NC(=O)[C@H](C)NC(=O)[C@@H]2CCCN2C1=O [Mupain-1 S5A, CPAYARYLDC] (Ac-CPAYARYLDC-NH2; disulfide 1-10)

Ki (huPA-H99Y [1]): 0.309 ± 0.013 µM
Ki (huPA-H99Y R35A): 0.174 ± 0.059 µM
Ki (huPA-H99Y V41A): 0.48 ± 0.158 µM
Ki (huPA-H99Y K143A): 0.188 ± 0.057 µM
Ki (muPA K41A): 0.014 ± 0.002 µM
Ki (muPA Y99A): 1.36 ± 0.33 µM
Ki (muPA K143A): 0.1 ± 0.02 µM
Ki (muPA S190A): 0.529 ± 0.052 µM
Ki (muPA V213T): 0.014 ± 0.004 µM
k off, huPA-H99Y (huPA-H99Y [2]): 3.33±0.13 (4) s^-1, ×10^2
k on, huPA-H99Y (huPA-H99Y [2]): 4.65±0.27 (4) M^-1s^-1, ×10^-5
Kd (huPA-H99Y [2]; calculated as k off/k on, read-out: K D, huPA-H99Y): 0.0718 ± 0.006 µM
k off, muPA (muPA): 1.22±0.06 (3) s^−1, ×10^2
k on, muPA (muPA): 5.79±0.82 (3) M^−1s^−1, ×10^−5
Kd (huPA-H99Y [3]): 0.134 ± 0.061 µM
N (huPA-H99Y [3]): 0.88±0.11 (5)
TΔS (huPA-H99Y [3]): −6.2±2.7 (5) ^1 kJ/mole
ΔG (huPA-H99Y [3]): −39.5±1.1 (5) ^1 kJ/mole
ΔH (huPA-H99Y [3]): −46.6±2.9 (5) ^1 kJ/mole
Ki (huPA-H99Y Q192A): 0.438 ± 0.072 µM
Compound: CC(=O)N[C@H]1CSSC[C@@H](C(N)=O)NC(=O)[C@H](C)NC(=O)[C@H](CC(C)C)NC(=O)[C@H](Cc2ccc(O)cc2)NC(=O)[C@H](CC2CCN(C(=N)N)CC2)NC(=O)[C@H](CO)NC(=O)[C@H](Cc2ccc(O)cc2)NC(=O)[C@H](C)NC(=O)[C@@H]2CCCN2C1=O [Mupain-1-16 D9A, CPAYS[L-3-(N-amidino-4-piperidyl)alanine]YLAC] (Ac-CPAYS[Ala(1-amidino-4-piperidyl)]YLAC-NH2; disulfide 1-10)

Ki (huPA-H99Y [1]): 44 ± 3 µM
Compound: CC(=O)N[C@H]1CSSC[C@@H](C(N)=O)NC(=O)[C@H](CC(=O)O)NC(=O)[C@H](CC(C)C)NC(=O)[C@H](C)NC(=O)[C@H](CCCNC(=N)N)NC(=O)[C@H](CO)NC(=O)[C@H](Cc2ccc(O)cc2)NC(=O)[C@H](C)NC(=O)[C@@H]2CCCN2C1=O [Mupain-1 Y7A, CPAYSRALDC] (Ac-CPAYSRALDC-NH2; disulfide 1-10)
